Patent EP4782453A1 (Beyang Therapeutics Co., Ltd., priority 2023, dated 2025)

Experiments:
[1] = molecular target: T1, Menin-MLL (Homo sapiens, UniProt O00255); assay: Inhibitory activity against Menin-MLL binding (fluorescence polarization); conditions: fluorescence polarization; 150 nM His-Menin, 15 nM FITC-MLL; 25°C for 60 min; read-out: Menin-MLL IC50
T1 construct: His-Menin (M1-L615 end); purchased BIORTUS BP9210
T1 sequence (O00255 1-615 isoform O00255-1): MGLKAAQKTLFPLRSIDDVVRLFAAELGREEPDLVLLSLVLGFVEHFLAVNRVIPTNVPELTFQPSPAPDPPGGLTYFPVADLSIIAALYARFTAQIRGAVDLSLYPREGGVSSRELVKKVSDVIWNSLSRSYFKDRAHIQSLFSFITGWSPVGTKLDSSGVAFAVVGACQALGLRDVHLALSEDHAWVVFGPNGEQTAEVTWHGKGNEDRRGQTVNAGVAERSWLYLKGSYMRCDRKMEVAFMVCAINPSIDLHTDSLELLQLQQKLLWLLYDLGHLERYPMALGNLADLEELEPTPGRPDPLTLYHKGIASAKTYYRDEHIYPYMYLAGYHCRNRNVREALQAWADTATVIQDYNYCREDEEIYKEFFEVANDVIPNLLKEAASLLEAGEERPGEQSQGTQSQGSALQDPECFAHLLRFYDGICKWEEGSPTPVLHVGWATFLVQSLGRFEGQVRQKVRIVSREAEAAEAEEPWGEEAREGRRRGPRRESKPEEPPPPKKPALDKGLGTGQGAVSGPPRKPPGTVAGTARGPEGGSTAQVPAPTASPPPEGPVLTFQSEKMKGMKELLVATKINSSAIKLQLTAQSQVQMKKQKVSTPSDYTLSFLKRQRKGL
Outline: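 Fluorescence polarization competition: compound and 150 nM His-tagged menin (residues M1-L615) sit 15 min at 25 °C in pH 7.5 HEPES buffer with NaCl, DTT and BSA; 15 nM FITC-labelled MLL peptide then binds for 60 min. IC50 fitted sigmoidally from mP values, duplicate wells.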

[2] = tested on: MEIS1 gene expression; assay: Inhibition of MEIS1 gene expression in human tumor cells (qRT-PCR), MV-4-11; type: cell-based; conditions: MV4-11, MV-4-11 (carrying MLL-AF4), 48 hours of incubation, relative MEIS1 gene expression vs GAPDH, read-out: MV-4-11 MEISI EC50
From the text: Experimental Example 3: Evaluation of Inhibitory Activity of Compounds Against MEISI Gene Expression in Human Tumor Cells
The effect of test samples on MEIS1 gene expression in vitro cultured human leukemia cells MV-4-11 (carrying MLL-AF4), MOLM-13 (carrying MLL-AF9), and OCI-AML3 (carrying NPM1c) was studied.
• Human acute lymphoblastic leukemia cells MV-4-11, purchased from American Type Culture Collection, Catalog Number: CRL-9591; • Human acute myeloid leukemia cells MOLM-13, purchased from COBIOER BIOSCIENCES CO., LTD, Catalog Number: CBP60678; • Human acute myeloid leukemia cells OCI-AML3, purchased from COBIOER BIOSCIENCES CO., LTD, Catalog Number: CBP60817; • MEIS1 Primer/Probe, purchased from IDT, Catalog Number: 40831613; and • GAPDH Primer/Probe, purchased from IDT, Catalog Number: 22214836.
MV-4-11 cells were cultured in an IMDM medium containing 10% fetal bovine serum, or MOLM-13 and OCI-AML3 cells were cultured in an RPMI-1640 medium containing 20% fetal bovine serum, each supplemented with 100 U·mL^-1 penicillin and 100 µg·mL^-1 streptomycin. These cells were cultured at 37°C with 5% CO2. The suspensions of individual cell lines were prepared in their respective media and seeded into 48-well plates at a density of 100,000 cells/well. On the day of the experiment, a compound stock solution was diluted in a 6-fold gradient using DMSO. Each gradient-diluted stock solution was then further diluted 250-fold with a complete medium to prepare a series of working solutions at different concentrations. Next, 250 µL of working solution (containing the complete medium with a 2-fold serial concentration of the test compound or a positive control compound, or containing a control complete medium) was added to each well. After 48 hours of incubation, cells from the 48-well plate were collected into 1 mL centrifuge tubes, centrifuged at 1000 rpm for 5 minutes, and the complete medium was removed. Cells were washed twice with 1 mL PBS and centrifuged to remove PBS. Total RNA was extracted using the RNeasy Mini Kit (250) (QIAGEN, 74106). The threshold cycle (Ct) value for gene expression was determined using the HiScript II U+ One Step qRT-PCR Probe Kit (Vazyme) (Vazyme, Q223-01), with 3 replicates per sample. The prepared reaction mixture was placed in an ABI 7500 real-time PCR instrument, and the reaction proceeded following the procedures below. [formula]
Next, for the relative MEIS1 gene expression, the concentration (EC50) that inhibits 50% of relative MEIS1 gene expression was calculated using GraphPad Prism 8 software.

Row | SMILES | IC50 [1] [nM] | EC50 [2] [nM]
1 | CC[C@@H](C1CCN(C(C)=O)CC1)N1CC(c2cc(-c3ccc(F)cc3C(=O)N3CCOC[C@H]3C)c3c(F)nc(C)n3c2)C1 [Example 280-1, 1-{4-[(1S)-1-[3-(1-fluoro-8-{4-fluoro-2-[(3R)-3-methylmorpholin-4-carbonyl]phenyl}-3-methylimidazo[1,5-a]pyridin-6-yl)azacyclobutan-1-yl]propyl]piperidin-1-yl}ethan-1-one] | 15 | 61
2 | Cc1nc(F)c2c(-c3ccc(F)cc3C(=O)N3CCOCC3C)cc(C3CN(C(CCCN4CCCC(O)C4)C(C)C)C3)cn12 (stereo not shown) [Example 292] | 4.5 | 15
3 | Cc1nc(F)c2c(-c3ccc(F)cc3C(=O)N3CCOC[C@H]3C)cc(C3CN([C@H](CCCN4CCC[C@H](O)C4)C(C)C)C3)cn12 [Example 293] | 3.1 | 23
4 | Cc1nc(F)c2c(-c3ccc(F)cc3C(=O)N3CCOC[C@H]3C)cc(C3CN([C@H](CO[C@@H]4CCCN(C)C4)C(C)C)C3)cn12 [Example 297-1, (3R)-4-[5-fluoro-2-(1-fluoro-3-methyl-6-{1-[(2S)-3-methyl-1-{[(3R)-1-methylpiperidin-3-yl]oxy}butan-2-yl]azacyclobutan-3-yl}imidazo[1,5-a]pyridin-8yl)benzoyl]-3-methylmorpholine] | 10.8 | 32
5 | CO[C@@H]1CCCN(CCC[C@H](C(C)C)N2CC(c3cc(-c4ccc(F)cc4C(=O)N4CCOC[C@H]4C)c4c(F)nc(C)n4c3)C2)C1 [Example 305] | 8 | 7.6
6 | CO[C@H]1CCCN(CCC[C@H](C(C)C)N2CC(c3cc(-c4ccc(F)cc4C(=O)N4CCOC[C@H]4C)c4c(F)nc(C)n4c3)C2)C1 [Example 306] | 6.5 | 4.6
7 | CCN(C(=O)c1cc(F)ccc1-c1cc(C2CN([C@H](CCCN3CCN(C)CC3)C(C)C)C2)cn2c(C)ncc12)C(C)C [Example 310-2, N-ethyl-5-fluoro-2-(3-methyl-6-{1-[(3R)-2-methyl-6-(4-methylpiperazin-1-yl)hexan-3-yl]azacyclobutan-3-yl}imidazo[1,5-a]pyridin-8-yl)-N-(isopropyl)benzamide] | 3.6 | 5
8 | CCN(C(=O)c1cc(F)ccc1-c1cc(C2CN([C@H](CCCN3CCN(C(C)=O)CC3)C(C)C)C2)cn2c(C)ncc12)C(C)C [Example 311-2, 2-(6-{1-[(3R)-6-(4-acetylpiperazin-1-yl)-2-methylhexan-3-yl]azacyclobutan-3-yl}-3-methylimidazo[1,5-a]pyridin-8-yl)-N-ethyl-5-fluoro-N-(isopropyl)benzamide] | 8.5 | 19
9 | CCN(C(=O)c1cc(F)ccc1-c1cc(C2CN([C@H](CCCN3CCN(C)CC3)C(C)C)C2)cn2c(C)nc(F)c12)C(C)C [Example 312-2] | 2.8 | 5.7
10 | Cc1nc(F)c2c(-c3ccc(F)cc3C(=O)N3CCOC[C@H]3C)cc(C3CN([C@H](CCCN4CCC(F)CC4)C(C)C)C3)cn12 [Example 314] | 2.5 | 13
11 | Cc1ncc2c(-c3ccc(F)cc3C(=O)N3CCOC[C@H]3C)cc(C3CN([C@H](CCCN4CCN(C)CC4)C(C)C)C3)cn12 [Example 323-2, (3R)-4-[5-fluoro-2-(3-methyl-6-{1-[(3R)-2-methyl-6-(4-methylpiperazin-1-yl)hexan-3-yl]azacyclobutan-3-yl}imidazo[1,5-a]pyridin-8-yl)benzoyl]-3-methylmorpholine] | 2.7 | 8.6
12 | CCN1CCN(CCC[C@H](C(C)C)N2CC(c3cc(-c4ccc(F)cc4C(=O)N4CCOC[C@H]4C)c4cnc(C)n4c3)C2)CC1 [Example 324-2] | 2.5 | 7.3
13 | Cc1nc(F)c2c(-c3ccc(F)cc3C(=O)N3CCOC[C@H]3C)cc(C3CN([C@H](CCCN4CCN(C5CC5)CC4)C(C)C)C3)cn12 [Example 350] | 3.3 | 6.8
14 | Cc1nc(F)c2c(-c3ccc(F)cc3C(=O)N3CCOC[C@H]3C)cc(C3CN([C@H](CCCN4C[C@H]5C[C@@H]4CO5)C(C)C)C3)cn12 [Example 353, (1R,4R)-5-[(4R)-4-[3-(1-fluoro-8-{4-fluoro-2-[(3R)-3-methylmorpholin-4-carbonyl]phenyl}-3-methylimidazo[1,5-a]pyridin-6-yl)azacyclobutan-1-yl]-5-methylhexyl]-2-oxa-5-azabicyclo[2.2.1]heptane] | 2.6 | 7.4
15 | Cc1nc(F)c2c(-c3ccc(F)cc3C(=O)N3CCOC[C@H]3C)cc(C3CN([C@H](CN4CCN(C)CC4)C(C)C)C3)cn12 [Example 368-2, (3R)-4-[5-fluoro-2-(1-fluoro-3-methyl-6-{1-[(2S)-3-methyl-1-(4-methylpiperazin-1-yl)butan-2-yl]azacyclobutan-3-yl}imidazo[1,5-a]pyridin-8-yl)benzoyl]-3-methylmorpholine] | 4.3 | 7.8
16 | Cc1nc(F)c2c(-c3ccc(F)cc3C(=O)N3CCOC[C@H]3C)cc(C3CN(C(CC[C@@H]4COCCN4)C(C)C)C3)cn12 (stereo partly drawn) [Example 371, (3R)-4-{5-fluoro-2-[1-fluoro-3-methyl-6-(1-{4-methyl-1-[(3R)-morpholin-3-yl]pentan-3-yl}azacyclobutan-3-yl)imidazo[1,5-a]pyridin-8-yl]benzoyl}-3-methylmorpholine] | 4.8 | 3
17 | CCN(C(=O)c1cc(F)ccc1-c1cc(C2CN([C@H](CCCN3C[C@H]4C[C@@H]3CO4)C(C)C)C2)cn2c(C)ncc12)C(C)C [Example 379, N-ethyl-5-fluoro-2-(3-methyl-6-{1-[(3R)-2-methyl-6-[(1R,4R)-2-oxa-5-azabicyclo[2.2.1]heptan-5-yl]hexan-3-yl]azacyclobutan-3-yl}imidazo[1,5-a]pyridin-8-yl)-N-(isopropyl)benzamide] | 1.8 | 2.4
18 | CCN(C(=O)c1cc(F)ccc1-c1cc(C2CN([C@H](CCCN3CCN(CCO)CC3)C(C)C)C2)cn2c(C)ncc12)C(C)C [Example 398, N-ethyl-5-fluoro-2-(6-{1-[(3R)-6-[4-(2-hydroxyethyl)piperazin-1-yl]-2-methylhexan-3-yl]azacyclobutan-3-yl}-3-methylimidazo[1,5-a]pyridin-8-yl)-N-(isopropyl)benzamide] | 1.9 | 1.9
19 | CCN(C(=O)c1cc(F)ccc1-c1cc(C2CN([C@H](CCCN3C4COCC3C4)C(C)C)C2)cn2c(C)ncc12)C(C)C [Example 423] | 1.7 | 1.3
20 | CCN(C(=O)c1cc(F)ccc1-c1cc(C2CN([C@H](CN3CCN(CCO)CC3)C(C)C)C2)cn2c(C)ncc12)C(C)C [Example 431, N-ethyl-5-fluoro-2-(6-{1-[(2S)-1-[4-(2-hydroxylethyl)piperazin-1-yl]-3-methylbutan-2-yl]azacyclobutan-3-yl}-3methylimidazo[1,5-a]pyridin-8-yl)-N-(isopropyl)benzamide] | 3.9 | 5.5
